BigSolDB 2.1

SMILES: CC#CCn1c(N2CCC[C@@H](N)C2)nc2c1c(=O)n(Cc1nc(C)c3ccccc3n1)c(=O)n2C
- solubility (mole fraction) (in acetonitrile, 273.15 K): 0.000425
- solubility (mole fraction) (in acetonitrile, 278.15 K): 0.000546
- solubility (mole fraction) (in acetonitrile, 283.15 K): 0.000675
- solubility (mole fraction) (in acetonitrile, 288.15 K): 0.000821
- solubility (mole fraction) (in acetonitrile, 293.15 K): 0.000974
- solubility (mole fraction) (in acetonitrile, 298.15 K): 0.00114
- solubility (mole fraction) (in acetonitrile, 303.15 K): 0.00132
- solubility (mole fraction) (in acetonitrile, 308.15 K): 0.00151
- solubility (mole fraction) (in acetonitrile, 313.15 K): 0.00172
- solubility (mole fraction) (in ethanol, 273.15 K): 0.000511
- solubility (mole fraction) (in ethanol, 278.15 K): 0.000637
- solubility (mole fraction) (in ethanol, 283.15 K): 0.000782
- solubility (mole fraction) (in ethanol, 288.15 K): 0.000947
- solubility (mole fraction) (in ethanol, 293.15 K): 0.00113
- solubility (mole fraction) (in ethanol, 298.15 K): 0.00137
- solubility (mole fraction) (in ethanol, 303.15 K): 0.00163
- solubility (mole fraction) (in ethanol, 308.15 K): 0.00194
- solubility (mole fraction) (in ethanol, 313.15 K): 0.00231
- solubility (mole fraction) (in isopropanol, 273.15 K): 0.000227
- solubility (mole fraction) (in isopropanol, 278.15 K): 0.000282
- solubility (mole fraction) (in isopropanol, 283.15 K): 0.000343
- solubility (mole fraction) (in isopropanol, 288.15 K): 0.000421
- solubility (mole fraction) (in isopropanol, 293.15 K): 0.000496
- solubility (mole fraction) (in isopropanol, 298.15 K): 0.000578
- solubility (mole fraction) (in isopropanol, 303.15 K): 0.000668
- solubility (mole fraction) (in isopropanol, 308.15 K): 0.000765
- solubility (mole fraction) (in isopropanol, 313.15 K): 0.000874
- solubility (mole fraction) (in methanol, 273.15 K): 0.00061
- solubility (mole fraction) (in methanol, 278.15 K): 0.000778
- solubility (mole fraction) (in methanol, 283.15 K): 0.00097
- solubility (mole fraction) (in methanol, 288.15 K): 0.00121
- solubility (mole fraction) (in methanol, 293.15 K): 0.00148
- solubility (mole fraction) (in methanol, 298.15 K): 0.00179
- solubility (mole fraction) (in methanol, 303.15 K): 0.00213
- solubility (mole fraction) (in methanol, 308.15 K): 0.00254
- solubility (mole fraction) (in methanol, 313.15 K): 0.00302
- solubility (mole fraction) (in n-propanol, 273.15 K): 0.000342
- solubility (mole fraction) (in n-propanol, 278.15 K): 0.000403
- solubility (mole fraction) (in n-propanol, 283.15 K): 0.000478
- solubility (mole fraction) (in n-propanol, 288.15 K): 0.000573
- solubility (mole fraction) (in n-propanol, 293.15 K): 0.00067
- solubility (mole fraction) (in n-propanol, 298.15 K): 0.000794
- solubility (mole fraction) (in n-propanol, 303.15 K): 0.00093
- solubility (mole fraction) (in n-propanol, 308.15 K): 0.00108
- solubility (mole fraction) (in n-propanol, 313.15 K): 0.00125
